Literature values as cited in US20080044504A1, “Pomegranate Juice, Pomegranate Juice Powder and Process for Producing the Powder” (Marukin Bio, Inc., priority 2004, published 2008).
Read-outs that look alike come from different tables or passages of the source.

Test system: estrogen receptor

In the case of O=c1c(-c2ccc(O)cc2)coc2cc(O)ccc12 [daidzein], the “binding to the estrogen receptor” value (binding rate of DES defined as 100%) is given as 0.04%.

In the case of O=c1c(-c2ccc(O)cc2)coc2cc(O)cc(O)c12 [genistein], the “binding to the estrogen receptor” value is listed as 1.7%.
